Data reported in US20230263168A1, “COMBINED FUNGICIDAL PREPARATIONS AND METHODS FOR USING THEREOF” (SAVE FOODS LTD., priority 2020, published 2023).

Tested on: Penecillium Digitatum
Assay: Example 3, Trials 1-3: decay of inoculated clementine stored at room temp
Type: in vivo, Penecillium Digitatum on Clementine
Experimental: Fruits: Clementine; Inoculum: Penecillium Digitatum 10^5; Inoculation: 24 hours prior to treatment.
Storage: Cartons of fruit from all the treatments were stored for several days at room temp to monitor fruit spoilage and treatment efficacy.

SMILES | % decay (waste) 12 days at room temp (Trial 1, IMZ 250 ppm, PAA 0, ACIDS 0) [%] | % decay (waste) 9 days at room temp (Trial 2, IMZ 250 ppm, PAA 0, ACIDS 0) [%] | % decay (waste) 9 days at room temp (Trial 2, IMZ 500 ppm, PAA 0, ACIDS 0) [%] | % decay (waste) 9 days at room temp (Trial 3, IMZ 250 ppm, PAA 0, ACIDS 0) [%] | % decay (waste) 9 days at room temp (Trial 3, IMZ 500 ppm, PAA 0, ACIDS 0) [%] | % decay (waste) 9 days at room temp (Trial 3, PAA 150 ppm only) [%]
C=CCOC(Cn1ccnc1)c1ccc(Cl)cc1Cl (stereo not drawn) [IMZ, imazalil] | 55 | 40 | 19 | 35 | 24 | –
CC(=O)OO [PAA, peracetic acid] | – | – | – | – | – | 36
